Reference: patent US4624950A, “Method for treating atherosclerosis hyperlipidema, lipid deposition on arterial walls, or raising the ratio of high density lipoprotein cholesterol to total cholesterol in serum” (Nissan Chemical Industries Ltd., priority 1983, dated 1986)

Legend:
[1] = tested on: Triton-induced hyperlipidemic rats; assay: Antihyperlipidemic activity in Triton-induced hyperlipidemic rats, method A (24 hours) (Test 2); type: in vivo, rat (male S.D.)
Protocol: (§1) Cholesterol in serum was measured by means of a cholesterol measuring kit (Cholesterol C-Test Wako, manufactured by Wako Junyaku Co., Ltd.), and cholesterol in HDL was measured by means of NC Hi-Set, manufactured by Nippon Chemiphar Co., Ltd. The quantitative analysis of triglyceride was conducted by means of a triglyceride measuring kit (Triglyceride C-II-Test Wako, manufactured by Wako Junyaku Co., Ltd.). Further, the change rate in the following Tables, was calculated by the following equation. Change rate(%)=(A-B/A)×100 where A is the amount of serum lipids (mg/dl) of the control group, and B is the amount of serum lipids (mg/dl) of the group to which the therapeutic agent was administered. The antihyperlipidemic activity in Triton-induced hyperlipidemic rats Male S.D. rats weighing 230-250 g (7 weeks old) were divided into groups of 5 rats each and injected with a physiological saline solution of Triton Wr-1339 in a dose of 250 mg/kg (5 ml/kg) i.v. through the tail vein. […] The test compounds suspended in 0.5% CMC-Na were given to the rats in an amount of 2 ml/kg via stomach tube 1 hour before and 5 hours after (in the case of method A) or 1 hour before and 23 hours after (in the case of method B) the injection of Triton solution. Control rats received the same volume of the vehicle. The animals were fasted during the experimental period. The total cholesterol and triglyceride in the serum were measured.

[2] = tested on: Triton-induced hyperlipidemic rats; assay: Antihyperlipidemic activity in Triton-induced hyperlipidemic rats, method B (43 hours) (Test 2); type: in vivo, rat (male S.D.)
Protocol: as §1

[3] = animal experiments; Svoboda and Azarnoff, Cancer Res. 39, 3419 (1979); cited from earlier work
normal rats = assay: Activities against serum lipid, degree of hepatomegaly and GOT/GPT in normal rats (Test 5); type: in vivo, rat (male S.D.); conditions: 300 mg/kg/day, seven days
Protocol: (§2) It is administered from once to three times per day. The dose may of course be varied depending upon the age, the weight or the condition of illness of the patient. […] In the following tests, the fractionation of lipoproteins was conducted by a dextran sulfate-MgCl2 precipitation method.
(§3) Cholesterol in serum was measured by means of a cholesterol measuring kit (Cholesterol C-Test Wako, manufactured by Wako Junyaku Co., Ltd.), and cholesterol in HDL was measured by means of NC Hi-Set, manufactured by Nippon Chemiphar Co., Ltd. The quantitative analysis of triglyceride was conducted by means of a triglyceride measuring kit (Triglyceride C-II-Test Wako, manufactured by Wako Junyaku Co., Ltd.).
(§4) Further, the change rate in the following Tables, was calculated by the following equation.
(§5) Change rate(%)=(A-B/A)×100
(§6) where A is the amount of serum lipids (mg/dl) of the control group, and B is the amount of serum lipids (mg/dl) of the group to which the therapeutic agent was administered.
The activities against serum lipid, the degree of hepatomegaly and the hepatic drug metabolizing systems of normal rats
Male S.D. rats (6 weeks old) were divided into groups of 5 rats each. The test compounds suspended in 5% gum arabic were given to the rats once a day for seven days in a daily dose of 300 mg/kg. Then, the rats were fasted for one day, blood samples were taken, and the total cholesterol, triglyceride, HDL-cholesterol in the serum were quantitatively analyzed. Further, the liver weight was measured, and the degree of hepatomegaly was determined by comparing the weight ratio per 100 g of the body weight with that of the control group. Furthermore, GOT and GPT values were measured, and the activities of cytochrome P-450 and glutathione related enzymes were also measured. These values were compared with those of the control groups to investigate any abnormality.

[4] = tested on: emulsion-induced hyperlipidemic rats; assay: Antihyperlipidemic activity in emulsion-induced hyperlipidemic rats (Test 1); type: in vivo, rat (male S.D.); conditions: 300 mg/kg/day p.o., 3 days
Protocol: The daily dose of the compound of the formula I is from 0.01 to 3.0 g, preferably from 0.1 to 1.5 g, for an adult. It is administered from once to three times per day. The dose may of course be varied depending upon the age, the weight or the condition of illness of the patient. Now, the usefulness of the compound of the formula I as an antiatherosclerotic agent will be shown by tests. In the following tests, the fractionation of lipoproteins was conducted by a dextran sulfate-MgCl2 precipitation method.
as §3, §4, §5, §6
The antihyperlipidemic activity in emulsion-induced hyperlipidemic rats
Male S.D. rats weighing 80-90 g (4 weeks old) were used. They were divided into groups of 5 to 6 rats each. The test compounds suspended in 0.5% CMC-Na(carboxymethyl cellulose sodium salt) were given to the rats in a daily dose of 4 ml/kg via stomach tube every 10:00 a.m. After 30 min., lipids emulsion having the following composition was orally given to the rats in an amount of 2.5 ml per rat. During the experimental period of 3 days, the rats were fed on a standard commercial diet and water ad libitum. […] The total cholesterol and triglyceride, and HDL cholesterol were measured.

[5] = reported for the agent and its derivatives; cited from earlier work
[6] = tested on: cholesterol-fed hyperlipidemic rats; assay: Antihyperlipidemic activity in cholesterol-fed hyperlipidemic rats (Test 3); type: in vivo, rat (male S.D.)
Protocol: as §2, §3, §4
Change rate(%)=(A-B/A)×100 where A is the amount of serum lipids (mg/dl) of the control group, and B is the amount of serum lipids (mg/dl) of the group to which the therapeutic agent was administered.
The antihyperlipidemic activity in cholesterol-fed hyperlipidemic rats
Male S.D. rats weighing 80-90 g (30 days old) were divided into groups of 5 rats each. The test compounds suspended in 0.5% CMC-Na were given to the rats in a daily dose of 0.4 ml per 100 g rat via stomach tube every 10:00 a.m. for 7 or 14 days. Control groups were given an equal volume of the vehicle. […] The total cholesterol, triglyceride and HDL cholesterol in serum were measured. After sacrificed, the livers were excised, washed with physiological saline, blotted on filter paper and weighed. The degree of hepatomegaly was calculated by the following equation.
Degree of hepatomegaly (%)=(D-C/C)×100 where C is the liver weight (g) per 100 g body weight in the control animal, and D is the liver weight (g) per 100 g body weight in the drug treated animal.

Compound: CCC(C)(Oc1ccc(C2(c3ccc(OC(C)(CC)C(=O)O)cc3)CCCCC2)cc1)C(=O)O (stereo not shown) [Clinofibrate]
- Change rate after 24 hours, Chol ([1]; 150 mg/kg p.o.): -21.0%
- Change rate after 24 hours, TG ([1]; 150 mg/kg p.o.): -33.0%
- Change rate after 43 hours, Chol ([2]; 150 mg/kg p.o.): -38.0%
- Change rate after 43 hours, TG ([2]; 150 mg/kg p.o.): -52.0%

Compound: CCOC(=O)C(C)(C)Oc1ccc(Cl)cc1 [Clofibrate, reference compound]
- Change rate after 24 hours, Chol ([1]; 300 mg/kg p.o.): -5.0%
- Change rate after 24 hours, TG ([1]; 300 mg/kg p.o.): +89.7%
- Hepatic carcinoma [3]: brings about hepatic carcinoma
- Change rate after 43 hours, Chol ([2]; 300 mg/kg p.o.): -0.5%
- Change rate after 43 hours, TG ([2]; 300 mg/kg p.o.): +150.1%
- Serum lipid, HDL-Chol (normal rats): 11.0 mg/dL
- Serum lipid, TG (normal rats): 39.2 mg/dL
- Serum lipid, Total-Chol (normal rats): 20.6 mg/dL
- Change rate, HDL-Chol (normal rats; vs control): -62.7%
- Change rate, TG (normal rats; vs control): -17.5%
- Change rate, Total-Chol (normal rats; vs control): -56.0%
- Degree of hepatomegaly (normal rats; vs control): +72.0%
- Serum lipid, HDL-Chol [4]: 16.8 mg/dL
- Serum lipid, TG [4]: 87.7 mg/dL
- Serum lipid, Total Chol [4]: 96.4 mg/dL
- Change rate, HDL-Chol ([4]; vs control): +37.0%
- Change rate, TG ([4]; vs control): -42.7%
- Change rate, Total Chol ([4]; vs control): -63.5%
- Reported side effects [5]: myalgia or hepatic insufficiency, and they are likely to lead to gallstone formation
- Change rate, HDL-Chol ([6]; 7th day, 50 mg/kg/day p.o.): -20.4%
- Change rate, TG ([6]; 7th day, 50 mg/kg/day p.o.): +8.7%
- Change rate, Total-Chol ([6]; 7th day, 50 mg/kg/day p.o.): -4.3%
- Degree of hepatomegaly ([6]; 7th day, 50 mg/kg/day p.o.): +6.0%
- Serum lipid, HDL-Chol ([6]; 7th day, 50 mg/kg/day p.o.): 14.4 mg/dL
- Serum lipid, TG ([6]; 7th day, 50 mg/kg/day p.o.): 133.5 mg/dL
- Serum lipid, Total-Chol ([6]; 7th day, 50 mg/kg/day p.o.): 417.5 mg/dL
- Change rate, HDL-Chol ([6]; 7th day, 150 mg/kg/day p.o.): -34.8%
- Change rate, TG ([6]; 7th day, 150 mg/kg/day p.o.): -9.0%
- Change rate, Total-Chol ([6]; 7th day, 150 mg/kg/day p.o.): -23.8%
- Degree of hepatomegaly ([6]; 7th day, 150 mg/kg/day p.o.): +20.0%
- Serum lipid, HDL-Chol ([6]; 7th day, 150 mg/kg/day p.o.): 11.8 mg/dL
- Serum lipid, TG ([6]; 7th day, 150 mg/kg/day p.o.): 111.8 mg/dL
- Serum lipid, Total-Chol ([6]; 7th day, 150 mg/kg/day p.o.): 332.2 mg/dL
- Change rate, HDL-Chol ([6]; 14th day, 50 mg/kg/day p.o.): +8.0%
- Change rate, TG ([6]; 14th day, 50 mg/kg/day p.o.): -30.1%
- Change rate, Total-Chol ([6]; 14th day, 50 mg/kg/day p.o.): -28.5%
- Degree of hepatomegaly ([6]; 14th day, 50 mg/kg/day p.o.): +8.8%
- Serum lipid, HDL-Chol ([6]; 14th day, 50 mg/kg/day p.o.): 9.4 mg/dL
- Serum lipid, TG ([6]; 14th day, 50 mg/kg/day p.o.): 116.6 mg/dL
- Serum lipid, Total-Chol ([6]; 14th day, 50 mg/kg/day p.o.): 418.4 mg/dL
- Change rate, HDL-Chol ([6]; 14th day, 150 mg/kg/day p.o.): +68.1%
- Change rate, TG ([6]; 14th day, 150 mg/kg/day p.o.): -29.8%
- Change rate, Total-Chol ([6]; 14th day, 150 mg/kg/day p.o.): -28.3%
- Degree of hepatomegaly ([6]; 14th day, 150 mg/kg/day p.o.): +22.8%
- Serum lipid, HDL-Chol ([6]; 14th day, 150 mg/kg/day p.o.): 15.8 mg/dL
- Serum lipid, TG ([6]; 14th day, 150 mg/kg/day p.o.): 117.7 mg/dL
- Serum lipid, Total-Chol ([6]; 14th day, 150 mg/kg/day p.o.): 420.0 mg/dL

Compound: O=C(O)c1cccnc1 [nicotinic acid]
- Reported side effects [5]: flashing or gastroenteric troubles
